Melting point data for 87 compounds are collected here from a melting point compilation (Tetko et al.; mined from patent text by program, amines drawn as free bases though some values may be those of a salt).

`O=C(CCC(F)(F)F)c1c(O)c2cccnc2n(-c2ccccc2)c1=O`: the melting point was 217 to 220 °C.

Consider `N#CC(=Cc1cccnc1)c1ccc(Cl)cc1`, for which the melting point lay within 141 to 143 °C.

As to `N#Cc1cnc2c(Br)cccc2c1O`, the melting point is over 260 °C.

With `CCCCCS(=O)(=O)NC(=O)/C=C/c1ccc(OCCOC)cc1NC(=O)c1ccc(Cl)cc1Cl`, the melting point was 177 °C.

`N#CCNC(=O)c1cccc2ccccc12` gave a melting point of 160 to 163 °C.

On to `N#Cc1ccc(C(=O)C23CCCN2C(=O)N(c2cc(Cl)cc(Cl)c2)C3=O)cc1` (configuration not stated), for which the melting point stood at 72.1 °C.

Take `O=C(Nc1cccc(S(=O)(=O)N(CCO)CCO)c1)c1cnn2c(C(F)(F)F)cc(-c3ccc(C(F)(F)F)cc3)nc12`: the melting point was determined as 209 °C.

`O=S(=S)(OC1O[C@H](COCc2ccccc2)[C@@H](OCc2ccccc2)[C@H](OCc2ccccc2)[C@H]1OCc1ccccc1)c1ccccc1` (some centres not stated) displayed a melting point of 106 to 108 °C.

`COc1ccc(F)c([C@@H]2C[C@H]2CNC(=O)C(C)C)c1` (relative stereo) returned a melting point of 56 to 57 °C.

As to `Cc1cccc(C2=NCSC2(c2ccnc(C)c2)N2CCOC2=O)c1` (configuration not stated), the melting point fell in the range of 80 to 82 °C.

Compound `CCCCCc1cc(O)c2c(c1)OC(C)(C)C1=C2CC(C)(C)S1` displayed a melting point of 109 to 110 °C.

In the case of `O=C1NCC(Cc2cccc(F)c2)O1` (configuration not stated), the melting point was in the range of 77 to 78 °C.

Take `COc1ccc2c(OC)c(C(C)C)cc(OC)c2c1`: the melting point lay in the range of 80 to 81.5 °C.

On to `CC12CC(Cl)C(O)CC1CCC1C2CCC2(C)C(O)C(N3CCCCC3)CC12` (configuration not stated), for which the melting point is 232 to 234 °C.

In turn, `CCCCCCCCCCCCCCCCCCOc1cccc(NCC(=O)OCc2ccccc2)c1` came in with a melting point of 55 to 60 °C.

Compound `CCCCCCCCCCCCCC(c1ccccc1)S(=O)(=O)NC(=O)Nc1c(C(C)C)cccc1C(C)C` (configuration not stated) had a melting point of 97 to 102 °C.

In the case of `CNS(=O)(=O)c1ccc(-c2c(Cl)nc(C(F)(F)F)nc2-c2ccc(S(C)(=O)=O)cc2)cc1`, the melting point is 226 to 230 °C.

On to `CNCCCN(C)c1ccc2c(C(=O)NCC34CC5CC(CC(C5)C3)C4)c(Cl)ccc2n1`, for which the melting point is 195 to 200 °C.

Compound `CC1(C)CCCC(C)(C)N1c1nc(Cl)cc(N2CCCC2)n1` had a melting point of 130 to 135 °C.

Consider `O=C(Cn1nnnc1-c1cc2ccccc2o1)OCCO`, for which the melting point lay in the range of 131 to 135 °C.

`O=C1c2ccccc2CCC1CN1CCC2(CC1)C(=O)NCN2c1ccccc1` (configuration not stated) gave a melting point of 170 to 173 °C.

In turn, `C[C@H](NC(=O)C[C@@H](CCBr)c1ccc(F)cc1)c1ccccc1` yielded a melting point of 156 to 158 °C.

Compound `COc1c(Br)ccc2oc(C=O)c(C)c12` returned a melting point of 81 to 82 °C.

In the case of `Fc1cccc(CC[C@H]2CNCCN2)c1`, the melting point fell in the range of 95 to 99 °C.

`CCOC(=O)c1c(C(F)(F)F)nc(-c2cccs2)c(-c2ccccc2)c1O` yielded a melting point of 136 °C.

For the compound `SC1=NC2(CO1)COC(S)=N2`, the melting point was in the range of 200 to 202 °C.

Consider `CC(C)NC(=O)OCC(=O)c1ccc(C2CCCCC2)cc1`, for which the melting point lay in the range of 111 to 112 °C.

`C[C@@H](Cn1ncc2ccc(O)c(Br)c21)O[Si](C)(C)C(C)(C)C` showed a melting point of 103 to 105 °C.

In turn, `Cc1oc(-c2ccccc2)nc1COc1ccc(COc2ccc3ccccc3c2CC(=O)O)cc1` came in with a melting point of 187 to 188 °C.

Compound `COc1cc2ncc(C#N)c(Nc3ccc(Oc4ccccc4)cc3)c2cc1OC` displayed a melting point of 239 to 241 °C.

In the case of `N#Cc1c[nH]c(-c2ccccc2)c1C#N`, the melting point lay within 197 to 200 °C.

In turn, `COc1ccc(Nc2nc(Cl)nc(NCCCO)n2)cc1` registered a melting point of 155 to 159 °C.

In turn, `CS(=O)(=O)Cc1cnc2ccccc2c1O` gave a melting point of 280 to 282 °C.

Consider `COC(=O)c1ccc(OC)c2oc(/C=C\C(=O)O)cc12`, for which the melting point lay in the range of 175 to 178 °C.

In turn, `C[C@@H](S[C@H]1CO[C@H](c2ccc(C(=O)Nc3ccc(C#N)c4ccccc34)cc2)OC1)[C@](O)(Cn1cncn1)c1ccc(F)cc1F` showed a melting point of 109 °C.

`O=C1[C@H]2CCC[C@H]2N(C(=O)CNS(=O)(=O)c2ccccc2)c2ccccc2N1Cc1ccccc1` (relative stereo) had a melting point of 185 to 187 °C.

On to `NC[C@H]1COc2ccc(Cl)c(-c3ccccc3C(F)(F)F)c2O1`, for which the melting point was 84 °C.

Take `Oc1ccc(-c2c3ccccc3cc3sc4ccccc4c23)cc1I`: the melting point was 125 to 128 °C.

Turning to `O=C(Cc1ccc([N+](=O)[O-])cc1)CN1C(=O)c2ccccc2C1=O`, the melting point was found to be 184 °C.

The compound `CN[C@H]1CC[C@H](CO)CC1` registered a melting point of 87 to 88 °C.

Turning to `Clc1ccc(C2=CCCC2)cn1`, the melting point lay in the range of 59 to 60 °C.

`Cn1nc(-c2ccc(OC(F)(F)F)cc2)cc1CO` registered a melting point of 91 to 93 °C.

On to `COc1ccc2c(c1)C1=C(SCC3(CCN(Cc4ccc(F)cc4)CC3)O1)C(=O)C2=O`, for which the melting point was 196 to 197 °C.

Compound `Nc1nccc(-c2c[nH]c3nccc(OCc4ccccc4)c23)n1` showed a melting point of over 210 °C.

Regarding `COc1cc2nc(N)nc(-c3ccc(O)c(Br)c3)c2cc1OC`, the melting point lay in the range of 233 to 234 °C.

For `COc1cc2c(c3c1OC(C)(C)C3)C(c1cccc(OCC(N)=O)c1)=NC(C)(C)C2`, the melting point lay within 172 to 174 °C.

The compound `CCCCCCCCCCOc1ccc(C(=O)O)cc1C12CC3CC(CC(C3)C1)C2` yielded a melting point of 151 to 152 °C.

With `O=C(Nc1ccnn1-c1c(F)c(F)c(C(F)(F)F)c(F)c1F)C(Cl)Cl`, the melting point was in the range of 112 to 114 °C.

`CN(C)S(=O)(=O)Oc1ccccc1S(N)(=O)=O`: the melting point fell in the range of 88 to 89 °C.

`COc1c(C)nc2sc(Cl)cn2c1=O` displayed a melting point of 138 to 141 °C.

`O=C(NCc1ccn(-c2cc3nc(C(=O)O)c(=O)[nH]c3cc2C(F)(F)F)c1)Nc1ccccc1`: the melting point was over 300 °C.

Compound `COC(=O)c1nc2nc(C(C)C)cc(O)n2n1` gave a melting point of 198 to 201 °C.

In turn, `COc1cc(Nc2c(C#N)cnc3cc(/C=C/C(=O)O)ccc23)c(Cl)cc1Cl` yielded a melting point of 237 to 240 °C.

Regarding `COc1ccc(C#N)cc1-c1cc(-c2cccc(C#N)c2)on1`, the melting point lay within 241 to 243 °C.

On to `O=C(c1ccc(O)cc1)c1nn(C2CCCC2)c2c(C(F)(F)F)cccc12`, for which the melting point fell in the range of 225 to 226 °C.

`OCC(I)c1ccccc1` (configuration not stated) registered a melting point of 71 to 72 °C.

Take `CSC1=NC(=O)C(=Cc2cc(C(C)(C)C)c(O)c(C(C)(C)C)c2)N1`: the melting point was in the range of 248 to 249 °C.

The compound `CC(C)CC(NC(=O)C(Cc1ccccc1)NC(=O)C1CCCCC1C(=O)O)C(=O)O` (configuration not stated) displayed a melting point of 84 to 122 °C.

With `COCc1ccn2nc(SCc3ccccc3)nc2n1`, the melting point amounted to 92 °C.

`COc1cc(OC)c(C)c(C(=O)OCC(Cl)(Cl)Cl)c1C` showed a melting point of 129 °C.

Take `COc1ccc(/C=C/C(=O)C2C(=O)CC(c3ccc(OC)cc3)C([N+](=O)[O-])C2c2ccccc2)cc1` (configuration not stated): the melting point fell in the range of 164 to 165 °C.

Turning to `COc1ccc(OCC(O)CN2CCC(Nc3nc4ccccc4n3Cc3ccc(F)cc3)CC2)cc1` (configuration not stated), the melting point was determined as 174 °C.

In turn, `CCN(C(=O)c1ccccc1C(=O)c1ccc(Cl)cc1)C(C)(C)CNS(=O)(=O)c1ccc(C)cc1` gave a melting point of 175 to 176 °C.

`Fc1cc2ccc(CBr)nc2cc1F` yielded a melting point of 113 to 115 °C.

With `COc1cc(NC(=O)OC(C)(C)C)c([N+](=O)[O-])cc1C#Cc1ccccc1`, the melting point turned out to be 129 °C.

For `O=C1COC(Nc2ccccc2)=C1C(=O)Nc1ccccc1`, the melting point lay in the range of 182 to 184 °C.

The compound `Fc1ccc(-c2cc(NCc3cccc(NCc4ccccc4)n3)n[nH]2)cc1` yielded a melting point of 117 to 118 °C.

Take `NC(=O)C=Cc1ccc(NC(=O)C=C2CC(C(=O)OCc3ccccc3)Nc3cc(Cl)cc(Cl)c32)cc1` (racemic): the melting point is over 250 °C.

As to `CC(C)(C)OC(=O)[C@@H]1CCC(=O)N1`, the melting point is 91 to 92 °C.

For the compound `OCc1cc2c(N=C3SC[C@@H]4Cc5ccccc5CN34)cccc2cn1`, the melting point was found to be 210 °C.

`CC(C)CSc1ccc(N)c([N+](=O)[O-])c1`: the melting point lay in the range of 56.5 to 58.5 °C.

For the compound `O=c1c2ccccc2n(CCCOC2CCCCO2)c2ccccc12` (configuration not stated), the melting point was in the range of 140 to 142 °C.

`O=C(O)C1(S(=O)(=O)c2ccc(Oc3ccc(Cl)cc3)cc2)CCN(Cc2ccccc2)CC1` yielded a melting point of 201 °C.

`O=C(O)C1Cc2c([nH]c3ccccc23)CN1C(=S)SCc1ccc([N+](=O)[O-])cc1` (configuration not stated): the melting point is 194 to 195 °C.

Turning to `O=C1NC(=O)c2c1c(-c1ccccc1)cc1oc3ccc(O)cc3c21`, the melting point lay within 288 to 290 °C.

`O=C(NCc1cocn1)c1ccnc(N2CCN(Cc3ccc(F)cc3)C2=O)c1`: the melting point fell in the range of 197 to 199 °C.

With `CC1(C)Oc2ccc(S(=O)(=O)C(F)(F)F)cc2[C@@H](N2Cc3ccccc3C2=O)[C@@H]1O` (relative stereo), the melting point fell in the range of 279 to 281 °C.

Compound `CC(C)Oc1cc(-n2nc(C(F)F)n(C)c2=O)c(Cl)cc1Cl` showed a melting point of 95 to 97 °C.

For the compound `O=S(=O)(Nc1ccc(C2=NC3(O)c4ccc(Cl)cc4CC3S2)cc1)c1ccc(Cl)cc1` (configuration not stated), the melting point is 116 °C.

Regarding `O=C(COc1ccccc1)c1ccc(Cl)cc1`, the melting point fell in the range of 80 to 83 °C.

`CCCCC1(CC)CS(=O)(=O)c2ccccc2N(c2ccccc2)C1=O` (configuration not stated) had a melting point of 57.6 °C.

With `O=C1N(Cc2ccccc2C(F)(F)F)c2ccccc2C12COc1cc3[nH]ncc3cc12` (configuration not stated), the melting point lay in the range of 124 to 126 °C.

`COc1ccc(NC(=O)c2ccc(OC)c(C34CC5CC(CC(C5)C3)C4)c2)c([N+](=O)[O-])c1` had a melting point of 208 to 210 °C.

Compound `ON=C(c1cccc2nc(N[C@@H]3CCc4ccccc43)ccc12)C1CC1` yielded a melting point of 151 °C.

Compound `Cc1cc(C)c([Si]2(c3c(C)cc(C)cc3C)C(=O)C(c3ccccc3)=C(c3ccccc3)C(=O)[Si]2(c2c(C)cc(C)cc2C)c2c(C)cc(C)cc2C)c(C)c1` yielded a melting point of 67 to 68 °C.

Consider `COc1cn(-c2ccc(N3CCNC3=O)cc2F)nc(-c2ccnn2-c2ccccc2)c1=O`, for which the melting point fell in the range of 259 to 260 °C.

For the compound `COc1ccc(C2CCc3cc(OC)ccc3C2C#N)cc1` (configuration not stated), the melting point is 92 °C.
